These results are taken from PMC9228185, “Accurate Mass Identification of an Interfering Water Adduct and Strategies in Development and Validation of an LC-MS/MS Method for Quantification of MPI8, a Potent SARS-CoV-2 Main Protease Inhibitor, in Rat Plasma in Pharmacokinetic Studies” (Pharmaceuticals, 2022).

Details of data set [1]: method as in PMID 22915796, PMID 27027316. The note with it: aldehyde bisulfite prodrug; cited from earlier work.
The format of data set [2] is physicochemical. The settings on record: 1 mg/mL in acetonitrile, −80 °C.
Data set [3] can be described thus: Crossover pharmacokinetic study in rats after IV or oral MPI8 sulfonate. The note with it: for AUC(0-t): read-out: AUC0−10 h; for Cmax: po. It counts as in vivo, Sprague-Dawley rats. An excerpt: The validated assay was applied in a crossover pharmacokinetic study to evaluate the oral bioavailability of MPI8 sulfonate in rats. The animal study protocol (#9132) was reviewed and approved by the Institutional Animal Care and Use Committee (IACUC) at Texas Southern University on 11 July 2020.
Male adult Sprague-Dawley rats were purchased from Envigo RMS (Indianapolis, IN, USA). Rats were cannulated via jugular vein a day before dosing. Three rats were intravenously administered a single dose of 5 mg/kg MPI8 sulfonate (5 mg/mL in 5% dextrose) via the jugular vein. Serial blood samples (about 0.1 mL) were collected from the cannulated jugular vein into heparin-coating tubes before dosing and at 2 min, 5 min, 15 min, 0.5 h, 1 h, 2 h, 4 h, 6 h, 8 h, 10 h, and 24 h time points after administration. After two weeks of washout period, the three rats were fasted overnight and orally administered a single dose of 50 mg/kg MPI8 sulfonate (20 mg/mL in water). Blood samples were collected before dosing and at 15 min, 0.5 h, 1 h, 1.5 h, 2 h, 2.5 h, 3 h, 4 h, 6 h, 8 h, 10 h, and 24 h time points after administration. Briefly, 12 time-point plasma samples from rats dosed intravenously and 13 time-point plasma samples from rats dosed orally were collected. Plasma samples were separated immediately by centrifugation of the blood samples at 13,000 rpm for 3 min and kept at −80 °C until analysis. The samples were processed following the procedure in Section 3.3.3. Three replicates for each time point were analyzed and the results were reported as mean values with standard deviation (SD) for each time point.
The pharmacokinetic parameters for each rat were estimated using Phoenix WinNonlin v8.3 software (Pharsight Corporation, Mountain View, CA, USA). Non-compartmental analysis was used to determine the pharmacokinetic parameters of MPI8. The pharmacokinetic parameters, including the area under the plasma concentration–time curve during the period of measurable observation (AUC0−10h), the area under the plasma concentration–time curve extrapolated to infinity (AUC0−inf), the apparent volume of distribution (Vz/F), the apparent clearance (CL/F), the total body mean residence time (MRT), and the terminal elimination half-life (T1/2) were estimated. The oral bioavailability (F) was calculated according to the following equation:(1) F=AUCoral×Dosei.v./AUCi.v.×Doseoral

The nature of data set [4]: Stability of MPI8 in rat plasma (QC samples, LC-MS/MS). It counts as in vitro ADME. As for the experimental part:
The quantification of MPI8 concentrations in extracted plasma samples was performed on a 6500+ Triple Quad LC-MS/MS System using a Kinetex HILIC Column (unbonded silica stationary phase, 2.6 µm, 50 × 2.1 mm, 100 Å, Phenomenex, CA, USA). The optimized method used binary gradient mobile phases with water (containing 1 mM ammonium acetate) as mobile phase A and acetonitrile as mobile phase B. A flow rate of 0.4 mL/min was used with an injection volume of 2 μL. The autosampler and oven temperature were set at 10 °C and 30 °C, respectively. The running time was 5 min. In this study, the HILIC column, widely considered as an NP column, was eluted in a typical RP time program of the gradient: Phase B was initially kept at 5% for 0.2 min, increased from 5% to 90% in the next 1.3 min, then held at 90% for 1 min, and then decreased to 5% in 1.5 min, and kept stably at 5% for 1 min. The unique behavior of MPI8 on a HILIC column, which resembles an RP characteristic, was most likely due to its hydrophobic nature.
Eighteen microliters of blank rat plasma, 2 μL of working solution (10×) (or 20 μL of rat plasma samples from pharmacokinetic studies), and 180 μL of acetonitrile (containing 5 ng/mL of IS) were vortex-mixed for 2 min and then centrifuged at 14,000 rpm for 20 min at 4 °C. Eighty μL of the supernatant were transferred to a sample vial for LC-MS/MS analysis. All samples were kept on ice during sample processing.
The stability of MPI8 was examined by keeping four replicates of the QC samples at room temperature and on ice for 4 h, in the auto-sampler tray at 10 °C for 24 h, and in a freezer at −80 °C for 3 weeks; the freeze-thaw stability was obtained over three freeze-thaw cycles, by thawing at 4 °C for 2–3 h and then refreezing at −80 °C for 12–24 h. The concentration of MPI8 after each storage period was determined using the calibration curve analyzed on the same day. The accuracy was expressed by RE%, and the precision was CV%.

The test system of data set [5] is SARS-CoV-2 (USA-WA1/2020). The arrangement: method as in PMID 35229034. The note with it: SARS-CoV-2 (USA-WA1/2020) in Vero E6 cells; read-out: EC50 to neutralize SARS-CoV-2; cited from earlier work.
Another data set deals with cathepsin L. The note with it: selective over cathepsins B and K; cited from earlier work.
Setting [6] is: male, Sprague-Dawley, in vivo, iv, rat, i.v. 5 mg/kg MPI8 sulfonate, NCA.
Setting [7] is: male, Sprague-Dawley, in vivo, rat, oral 50 mg/kg MPI8 sulfonate, NCA.
Where [8] appears, read: rat, i.v. 5 mg/kg MPI8 sulfonate, NCA.
[9] abbreviates: Auto-sampler (10 °C 24 h), nominal 1.5 ng/mL.
The mark [10] stands for this setting: Auto-sampler (10 °C 24 h), nominal 25 ng/mL.
[11] abbreviates: Auto-sampler (10 °C 24 h), nominal 400 ng/mL.
The mark [12] stands for this setting: Bench top (4 h, 4 °C), nominal 1.5 ng/mL.
The mark [13] stands for this setting: Bench top (4 h, 4 °C), nominal 25 ng/mL.
Setting [14] is: Bench top (4 h, 4 °C), nominal 400 ng/mL.
Where [15] appears, read: Freeze and thaw (−80 °C to 4 °C, 3 cycles), nominal 1.5 ng/mL.
Setting [16] is: Freeze and thaw (−80 °C to 4 °C, 3 cycles), nominal 25 ng/mL.
[17] abbreviates: Freeze and thaw (−80 °C to 4 °C, 3 cycles), nominal 400 ng/mL.
[18] abbreviates: Long-term (−80 °C, 20 days), nominal 1.5 ng/mL.
Where [19] appears, read: Long-term (−80 °C, 20 days), nominal 400 ng/mL.

“Also recorded” adds a separate entry of the source. Read-outs that look alike come from different tables or passages of the source.

For the molecule `CC(C)C[C@H](NC(=O)OCc1ccccc1)C(=O)N[C@@H](C[C@@H]1CCNC1=O)C(O)S(=O)(=O)[O-].[Na+]` (stereo partly drawn) [GC376], in data set [1], the “Conversion into active aldehyde form” value was “quickly convert”.

`Cc1cc(=O)n(-c2ccccc2)n1C` [AP, antipyrine, reference compound]: the “Stock solution stable for” value in data set [2] is reported as 12 months.

Consider `CC(OC(C)(C)C)C(NC(=O)OCc1ccccc1)C(=O)NC(CC1CCCCC1)C(=O)NC(C=O)CC1CCNC1=O` (stereo not drawn) [MPI8], for which, in data set [3] (male, Sprague-Dawley, in vivo, iv, rat, i.v. 5 mg/kg MPI8 sulfonate, 2 min after dosing, read-out: Mean initial plasma concentration), the C0 at 2 min amounted to 4480 ng/mL. Besides, the concentration at 10 h in data set [3] (male, Sprague-Dawley, in vivo, iv, rat, i.v. 5 mg/kg MPI8 sulfonate, 10 h post-dose, read-out: Mean plasma concentration) stood at 1.24 ng/mL. Further, the AUC(0-inf) in data set [3] (setting [6]) came to 618 ± 15.7 ng·h/mL; in data set [3] (setting [7]), 1180 ± 288 ng·h/mL. In addition, the MRT in data set [3] (setting [6]) was found to be 0.54 ± 0.1 h; in data set [3] (setting [7]), 2.52 ± 0.16 h. In addition, the half-life was 2.75 ± 0.53 h in data set [3] (setting [6]) and 1.22 ± 0.46 h in data set [3] (setting [7]). The AUC(0-t) in data set [3] (setting [6]) was found to be 613 ± 15.4 ng·h/mL; in data set [3] (setting [7]), 1180 ± 290 ng·h/mL. In data set [3] (male, Sprague-Dawley, in vivo, rat, oral 50 mg/kg MPI8 sulfonate, NCA, no unit in table (h)), the Tmax was 2.17 ± 0.58 h. In addition, the CL/F in data set [3] (male, Sprague-Dawley, in vivo, rat, oral 50 mg/kg MPI8 sulfonate, NCA, read-out: CL/F (converted)) is 733 mL/min/kg; in data set [3] (setting [8]), 110.116 ± 3.5637 mL/min/kg. The Vd/F in data set [3] (male, Sprague-Dawley, in vivo, rat, oral 50 mg/kg MPI8 sulfonate, NCA, read-out: Vz/F) amounted to 81.6 L/kg. Also, the bioavailability in data set [3] (male, Sprague-Dawley, rat, in vivo, 50 mg/kg, rat, oral 50 mg/kg vs i.v. 5 mg/kg MPI8 sulfonate, read-out: F (oral bioavailability)) turned out to be 15.8%. In addition, the Cmax in data set [3] (male, Sprague-Dawley, rat, in vivo, 50 mg/kg, oral 50 mg/kg MPI8 sulfonate) came to 601 ng/mL; in data set [3] (male, Sprague-Dawley, rat, in vivo, 50 mg/kg, oral 50 mg/kg MPI8 sulfonate, NCA, no unit in table (ng/mL)), 601 ± 75 ng/mL. In data set [3] (setting [8]), the Vz/F is 26,324.66 ± 5882.81 ml/kg. Also, the Plasma concentration result in data set [3] (rat, i.v. 5 mg/kg MPI8 sulfonate, by 24 h) is given as “undetectable”. Further, the “Calculated concentration (Mean ± SD)” value is on record as 1.44 ± 0.11 ng/mL in data set [4] (setting [9]); 26.8 ± 1.91 ng/mL in data set [4] (setting [10]); 458.5 ± 47.18 ng/mL in data set [4] (setting [11]); 1.35 ± 0.11 ng/mL in data set [4] (setting [12]); 21.3 ± 0.12 ng/mL in data set [4] (setting [13]); 340.25 ± 14.03 ng/mL in data set [4] (setting [14]). The “Calculated concentration (Mean ± SD)” value in data set [4] (setting [15]) is recorded as 1.33 ± 0.08 ng/mL; in data set [4] (setting [16]), 23.5 ± 1.41 ng/mL; in data set [4] (setting [17]), 362.2 ± 11.56 ng/mL; in data set [4] (setting [18]), 1.44 ± 0.19 ng/mL; in data set [4] (Long-term (−80 °C, 20 days), nominal 25 ng/mL), 25.18 ± 1.37 ng/mL; in data set [4] (setting [19]) it was 399 ± 17.61 ng/mL. In addition, the “Stability accuracy (RE%)” value in data set [4] (setting [9]) is listed as −4.33%; in data set [4] (setting [10]), 7.20%; in data set [4] (setting [11]) it was 14.63%; in data set [4] (setting [12]), −9.87%; in data set [4] (setting [13]), −14.80%; in data set [4] (setting [14]), −14.94%. Further, the “Stability accuracy (RE%)” value in data set [4] (setting [15]) was −11.17%; in data set [4] (setting [16]) it was −6.00%; in data set [4] (setting [17]) it was −9.45%; in data set [4] (setting [18]), −4.22%; in data set [4] (setting [19]), −0.25%. The “Degradation under the experimental conditions” value in data set [4] (conditions of Table 4) is “No significant degradation”. Moreover, in data set [4] (room temperature), the “Stability at room temperature in rat plasma” value is on record as “not stable”. Also, in data set [4] (room temperature, 50 ng/mL, n = 4), the “Bench top stability accuracy (RE%)” value is recorded as −27.6%. The EC50 in data set [5] was 30 nM. The “Stock solution stable for” value in data set [2] is 3 months. The “Potency toward cathepsin L” value in the data set on cathepsin L is given as “potent”.

In the case of `CC(OC(C)(C)C)C(NC(=O)OCc1ccccc1)C(=O)NC(CC1CCCCC1)C(=O)NC(CC1CCNC1=O)C(O)S(=O)(=O)O` (stereo not drawn) [MPI8 sulfonate], the “Conversion of prodrug to MPI8 in vivo” value in data set [3] (in vivo, rats) is reported as “rapid conversion; also recorded: rapidly converts”.

By AUC(0-inf) is commonly meant the area under the concentration-time curve extrapolated to infinity. Lower therefore signals low exposure. By MRT is commonly meant a mean duration of stay, worked out from the concentration-time curve. Usually half-life stands for how long it takes for the measured level to halve. For orientation: Tmax means the time from dosing to the highest level. As usually defined, the bioavailability is the share of a dose that reaches the circulation, judged against a reference dose that is usually intravenous. By Cmax is commonly meant the maximum level reached in the sampled fluid or tissue. What is called EC50 is the concentration giving half of the maximal effect.
